Five molecules from patent US20220298146A1, “HETEROCYCLIC DERIVATIVE AND USE THEREOF” (Transthera Sciences (Nanjing), Inc., priority 2019, published 2022) can be followed below.

One experiment deals with T1, LCK (h) (Homo sapiens, UniProt P06239).
T1 construct: purchased
Nature of the experiment: Enzymatic activity assay, LCK (h) kinase, [γ-33P]-ATP. Type of experiment: biochemical. Particulars: 10 μM [γ-33P]-ATP, 40 min, room temperature; read-out: Inhibitory Activity on LCK (h) kinase, IC50. As for the experimental part:
(§1) Test samples: the compounds of the present invention, having structures and preparation methods shown above.
Preparation of Compound Stock Solutions:
(§2) Compounds were each dissolved in 100% DMSO to prepare stock solutions with a maximum concentration of 500 μM.
Preparation of Compound Working Solutions:
(§3) The compound stock solutions were diluted to final concentrations of 500 μM, 150 μM, 50 μM, 15 μM, 5 μM, 1.5 μM, 0.5 μM, 0.15 μM and 0.05 μM to prepare compound working solutions (50×).
Preparation of Different Enzymatic Reaction Solutions:
LCK (h) enzyme was dissolved in a mixture of 50 mM Tris (pH 7.5), 0.1 mM EGTA, 0.1 mM Na3VO4 and 250 μM KVEKIGEGTYGVVYK to prepare an enzyme solution with a final concentration of 45 nM. An Mg/ATP mixture of 10 mM magnesium acetate and 10 μM [γ-^33P]-ATP was used to activate the enzymatic reaction.
(§4) The compound working solutions were added to a 384-well plate, with final concentrations of 10000 nM, 3000 nM, 1000 nM, 300 nM, 100 nM, 30 nM, 10 nM, 3 nM and 1 nM, respectively, and then different enzymatic reaction solutions prepared according to the above conditions were added. The reaction solutions were incubated at room temperature for 40 min, and then 0.5% phosphoric acid solutions were added to terminate the reaction. 10 μL of the reaction solution was added dropwise to P30 filter paper which was washed 4 times with a 0.425% phosphoric acid solution and once with methanol and then placed in a scintillation counter for detection. Gray analysis was performed on the results with Image J software, and IC50 values were calculated with GraphPad 5.0 software.

The next experiment addresses T2, Axl (h) (Homo sapiens, UniProt P30530).
T2 construct: purchased
T2 sequence (P30530 26-894): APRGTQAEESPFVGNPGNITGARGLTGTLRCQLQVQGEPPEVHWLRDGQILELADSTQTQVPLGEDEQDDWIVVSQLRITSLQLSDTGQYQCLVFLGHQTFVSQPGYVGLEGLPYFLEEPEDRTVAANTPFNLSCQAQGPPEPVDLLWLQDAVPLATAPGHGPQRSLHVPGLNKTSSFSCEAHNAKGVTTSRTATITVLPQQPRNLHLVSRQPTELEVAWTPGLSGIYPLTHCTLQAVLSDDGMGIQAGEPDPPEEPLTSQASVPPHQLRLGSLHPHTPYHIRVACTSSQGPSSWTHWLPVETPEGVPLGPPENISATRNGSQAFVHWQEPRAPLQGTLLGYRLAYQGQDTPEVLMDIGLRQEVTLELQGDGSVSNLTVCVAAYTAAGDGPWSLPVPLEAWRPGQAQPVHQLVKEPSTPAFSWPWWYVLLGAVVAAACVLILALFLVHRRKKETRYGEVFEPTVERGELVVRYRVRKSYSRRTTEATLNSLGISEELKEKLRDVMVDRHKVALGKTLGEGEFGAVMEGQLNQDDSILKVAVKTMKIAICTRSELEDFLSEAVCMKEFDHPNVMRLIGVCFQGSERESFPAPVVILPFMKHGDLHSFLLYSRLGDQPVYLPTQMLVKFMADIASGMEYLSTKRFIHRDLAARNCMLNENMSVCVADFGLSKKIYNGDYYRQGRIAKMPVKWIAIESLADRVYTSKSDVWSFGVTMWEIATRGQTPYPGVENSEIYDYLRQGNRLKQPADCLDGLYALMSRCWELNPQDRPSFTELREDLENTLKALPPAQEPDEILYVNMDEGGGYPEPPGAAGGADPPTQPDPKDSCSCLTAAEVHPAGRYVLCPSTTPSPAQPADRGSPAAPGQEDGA
Briefly: Enzymatic activity assay, Axl (h) kinase, [γ-33P]-ATP. It counts as biochemical. Particulars: 10 μM [γ-33P]-ATP, 40 min, room temperature; read-out: Inhibitory Activity on Ax1 (h), IC50. As for the experimental part:
as §1
(§5) (1) Preparation of Compound Stock Solutions
as §2
(§6) (2) Preparation of Compound Working Solutions
as §3
(3) Preparation of different enzymatic reaction solutions
Axl (h) enzyme was dissolved in a mixture of 8 mM MOPS (pH 7.0), 0.2 mM EDTA and 250 μM KKSRGDYMTMQIG to prepare an enzyme solution with a final concentration of 1.7 nM. An Mg/ATP mixture of 10 mM magnesium acetate and 10 μM [γ-^33P]-ATP was used to activate the enzymatic reaction.
as §4

The next experiment has as its target T3, H1299 cell pAxl (Homo sapiens, UniProt P30530).
T3 construct: endogenous in cells; host or cells: H1299
T3 sequence (P30530 26-894): T2 sequence (P30530 26-894)
Nature of the experiment: Inhibitory activity on cell pAxl (H1299 cells, hGAS6 stimulation, Western Blot). Particulars: hGAS6 200 ng/mL, tested at 1.1, 3.3, 10 and 30 nM, read-out: Inhibitory Activity on Cell pAx1, IC50. It counts as cell-based. How it is done: H1299 is a non-small cell lung cancer cell.
Test samples: the compounds of the present invention, having structures shown above.
Test instruments: protein electrophoresis apparatus (made by Bio Rad), membrane transfer apparatus (made by Bio Rad), exposure apparatus (made by Tanon), and CO2 cell incubator (made by Thermo).
H1299 cells were inoculated into a 6-well plate (containing 10% FBS 1640 medium, 5×10^5 cells per well) and adherently cultivated at 37° C. and 5% CO2 for 18 h. The cells were starved overnight, and compounds with different concentrations were added. The compounds had final concentrations of 1.1 nM, 3.3 nM, 10 nM and 30 nM, with DMSO having a final concentration of 1‰. There was a medium containing 10‰ DMSO in the negative control well. The cells were incubated at 37° C. and 5% CO2 for 60 min, and then hGAS6 (R&D, final concentration: 200 ng/mL) was added to each well. The cells were further incubated for 60 min, and then the total protein of the cells was extracted for Western Blot experiment. IC50 values were calculated with GraphPad 5.0 software, and the inhibitory activities of the compounds on cell pAxl were detected.
On the technique in general: Immunoblotting shows a protein as a band on a membrane.

Another experiment has as its target T4, Ron (h) (Homo sapiens, UniProt Q04912).
T4 construct: purchased
Briefly: Enzymatic activity assay, Ron (h) kinase, [γ-33P]-ATP. It counts as biochemical. Particulars: 10 μM [γ-33P]-ATP, 40 min, room temperature; read-out: Inhibitory Activity on Ron (h) kinase, IC50. As for the experimental part:
as §1, §5, §2, §6, §3
(3) Preparation of Different Enzymatic Reaction Solutions
Ron (h) enzyme was dissolved in a mixture of 8 mM MOPS (pH 7.0), 0.2 mM EDTA and 250 μM GGMEDIYFEFMGGKKK to prepare an enzyme solution with a final concentration of 40.4 nM. An Mg/ATP mixture of 10 mM magnesium acetate and 10 μM [γ-^33P]-ATP was used to activate the enzymatic reaction.
as §4

T1 sequence (P06239 whole entry): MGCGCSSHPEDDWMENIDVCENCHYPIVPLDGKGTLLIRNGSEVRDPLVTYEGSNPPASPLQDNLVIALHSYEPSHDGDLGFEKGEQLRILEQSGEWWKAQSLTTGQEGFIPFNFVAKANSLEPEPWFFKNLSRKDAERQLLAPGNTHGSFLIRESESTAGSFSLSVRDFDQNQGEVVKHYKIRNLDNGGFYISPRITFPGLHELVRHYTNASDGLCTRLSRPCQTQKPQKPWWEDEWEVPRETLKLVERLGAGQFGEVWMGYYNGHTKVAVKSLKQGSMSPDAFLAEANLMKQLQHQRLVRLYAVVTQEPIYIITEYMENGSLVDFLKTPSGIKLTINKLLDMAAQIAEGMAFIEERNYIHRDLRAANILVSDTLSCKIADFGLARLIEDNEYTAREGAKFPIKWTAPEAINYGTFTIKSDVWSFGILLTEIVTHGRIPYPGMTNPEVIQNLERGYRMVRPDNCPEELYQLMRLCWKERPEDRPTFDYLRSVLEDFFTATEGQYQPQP
T4 sequence (Q04912 25-1400): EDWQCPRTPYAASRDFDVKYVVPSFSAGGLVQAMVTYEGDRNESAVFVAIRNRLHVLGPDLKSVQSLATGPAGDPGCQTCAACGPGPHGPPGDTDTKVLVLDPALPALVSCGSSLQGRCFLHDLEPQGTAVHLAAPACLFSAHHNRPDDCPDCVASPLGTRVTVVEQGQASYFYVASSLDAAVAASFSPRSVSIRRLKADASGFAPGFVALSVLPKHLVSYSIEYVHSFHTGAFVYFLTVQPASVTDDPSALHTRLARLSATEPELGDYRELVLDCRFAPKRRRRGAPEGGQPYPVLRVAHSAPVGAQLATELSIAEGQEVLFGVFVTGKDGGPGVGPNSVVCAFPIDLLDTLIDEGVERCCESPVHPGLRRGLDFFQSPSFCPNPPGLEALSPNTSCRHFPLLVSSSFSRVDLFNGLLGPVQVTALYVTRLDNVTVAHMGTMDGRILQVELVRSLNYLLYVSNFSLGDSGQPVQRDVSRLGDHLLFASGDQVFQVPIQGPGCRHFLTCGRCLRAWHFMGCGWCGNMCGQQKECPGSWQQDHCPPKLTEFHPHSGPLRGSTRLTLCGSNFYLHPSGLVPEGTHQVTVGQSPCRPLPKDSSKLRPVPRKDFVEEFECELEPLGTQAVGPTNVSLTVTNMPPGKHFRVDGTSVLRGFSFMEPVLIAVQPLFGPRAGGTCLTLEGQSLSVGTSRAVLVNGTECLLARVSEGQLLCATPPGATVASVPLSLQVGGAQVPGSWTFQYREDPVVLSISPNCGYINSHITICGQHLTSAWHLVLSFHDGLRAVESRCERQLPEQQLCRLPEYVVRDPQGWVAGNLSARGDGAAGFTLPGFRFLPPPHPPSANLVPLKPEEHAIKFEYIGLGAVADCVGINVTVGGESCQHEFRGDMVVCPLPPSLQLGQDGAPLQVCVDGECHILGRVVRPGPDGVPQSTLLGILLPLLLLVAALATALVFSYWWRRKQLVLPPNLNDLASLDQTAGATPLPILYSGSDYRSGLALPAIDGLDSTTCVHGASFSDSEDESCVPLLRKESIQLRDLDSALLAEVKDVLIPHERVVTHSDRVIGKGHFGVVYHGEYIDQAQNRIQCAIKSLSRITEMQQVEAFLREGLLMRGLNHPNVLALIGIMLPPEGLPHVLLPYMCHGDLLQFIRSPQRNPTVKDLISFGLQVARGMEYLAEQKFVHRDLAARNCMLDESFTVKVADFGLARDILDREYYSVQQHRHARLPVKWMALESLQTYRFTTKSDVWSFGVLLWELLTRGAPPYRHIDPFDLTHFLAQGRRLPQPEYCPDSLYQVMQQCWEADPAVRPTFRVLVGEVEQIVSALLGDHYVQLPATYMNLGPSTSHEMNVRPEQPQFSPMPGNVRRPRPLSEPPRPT

The IC50 is the point on the concentration scale where inhibition reaches its midpoint. Consider `CC(C)n1cc(-c2ccc(F)cc2)c(=O)c(C(=O)Nc2cnc(Oc3ccnc(N)c3Cl)nc2)n1` [Compound 16, N-(2-((2-amino-3-chloropyridin-4-yl)oxy)pyrimidin-5-yl)-5-(4-fluorophenyl)-1-isopropyl-4-oxo-1,4-dihydropyridazine-3-carboxamide], for which the IC50 at LCK (h) was 579 nM; on Axl (h), 16 nM.
`Nc1nccc(Oc2ncc(NC(=O)c3nn(C4CC4)cc(-c4ccc(F)cc4)c3=O)cn2)c1Cl` [Compound 20, N-(2-((2-amino-3-chloropyridin-4-yl)oxy)pyrimidin-5-yl)-1-cyclopropyl-5-(4-fluorophenyl)-4-oxo-1,4-dihydropyridazine-3-carboxamide]: the IC50 was 10 to 30 nM on H1299 cell pAxl, 2250 nM at LCK (h) and 17 nM at Axl (h).
In the case of `C=CCn1cc(-c2ccc(F)cc2)c(=O)c(C(=O)Nc2cnc(Oc3ccnc(N)c3Cl)nc2)n1` [Compound 40, 1-allyl-N-(2-((2-amino-3-chloropyridin-4-yl)oxy)pyrimidin-5-yl)-5-(4-fluorophenyl)-4-oxo-1,4-dihydropyridazine-3-carboxamide], the IC50 at LCK (h) came out at 1070 nM; at Axl (h) it was 13 nM.
Regarding `CC(C)n1cc(C(=O)Nc2ccc(Oc3ccnc(N)c3Cl)nc2)c(=O)c(-c2ccc(F)cc2)n1` [Compound 23, N-(6-((2-amino-3-chloropyridin-4-yl)oxy)pyridin-3-yl)-6-(4-fluorophenyl)-2-isopropyl-5-oxo-2,5-dihydropyridazine-4-carboxamide], the IC50 is 92 nM at Ron (h), over 10000 nM on LCK (h) and 30 nM on Axl (h).
With `CC(C)n1cc(-c2ccc(F)cc2)c(=O)c(C(=O)Nc2ccc(Oc3cc4cnn(C)c4cc3-c3cn[nH]c3)cn2)n1` [Compound 1, 5-(4-fluorophenyl)-1-isopropyl-N-(5-((1-methyl-6-(1H-pyrazol-4-yl)-1H-indazol-5-yl)oxy)pyridin-2-yl)-4-oxo-1,4-dihydropyridazine-3-carboxamide], the IC50 on H1299 cell pAxl worked out at 1.1 nM.
